Values belong to the compound of their own block, whether it stands above or below them.
Key:
[1] = Solution stability of DAG sample solution (HPLC-ELSD); format: physicochemical; conditions: 8 mg/mL in acetonitrile/water (85:15)
Description: The test sample solutions (nominal 8 mg/mL) are prepared as follows. The sample preparation for DAG drug substance or API can be as follows. Accurately weigh, in duplicate, about 80 mg of DAG API sample into clean 10 mL volumetric flasks. Dissolve DAG API sample in approximately 5 mL of diluent, diluted to volume with diluent, and mix. The sample preparation for DAG drug product (lyophilized powder, 40 mg/vial) can be as follows: Clean and remove the closure of the vial. Reconstitute the lyophilized vial with 5.0 mL diluent to yield an 8 mg/mL solution. Prepare samples in duplicate (using 2 vials). The sample solutions can be stored up to 48 hrs at 2-8° C. and 52 hrs at ambient laboratory conditions.
With respect to solution stability, the recovery of the aged solutions should be within 85%-115% of the initial assay. […]
The experimental approach for determining solution stability was as follows: For a standard solution, a dulcitol standard solution was prepared at 1.0% of DAG nominal conc. in one replicate and placed the solution under ambient laboratory conditions and refrigerated conditions (2-8° C.), respectively, using 1% Linearity standard solutions). […] For time points of less than 24 hours, solution stability is evaluated against fresh standards. The recovery of the aged solutions is evaluated. […] For time points of less than 24 hours, solution stability is evaluated against fresh standards.

[2] = Solution stability of dulcitol standard solution (HPLC-ELSD); format: physicochemical; conditions: for Assay / Concentration: standard solution
Description: The standard solutions can be stored up to 48 hrs at 2-8° C. and can be stored up to 52 hrs at ambient laboratory condition. The standard solutions can be used to generate a standard curve as described further below.
With respect to solution stability, the recovery of the aged solutions should be within 85%-115% of the initial assay. The absolute difference should be no more than 0.2% for an impurity at ≤1.0%. For an impurity >1.0%, the result of the aged solution should be within 80%-120% of the original. No new impurities at ≥1.0% should be observed.
The experimental approach for determining solution stability was as follows: For a standard solution, a dulcitol standard solution was prepared at 1.0% of DAG nominal conc. in one replicate and placed the solution under ambient laboratory conditions and refrigerated conditions (2-8° C.), respectively, using 1% Linearity standard solutions). The solution was reanalyzed at different time intervals, such as 2 hours, 4 hours, 8 hours, 24 hours and 48 hours. For time points of less than 24 hours, solution stability is evaluated against fresh standards. The recovery of the aged solutions is evaluated. For sample solutions, a sample solution at a specified DAG nominal concentration was prepared in one replicate and placed under laboratory conditions at ambient temperature or under refrigerated conditions (2-8° C.). The solution was reanalyzed at different time intervals, such as 2 hours, 4 hours, 8 hours, 24 hours and 48 hours. For time points of less than 24 hours, solution stability is evaluated against fresh standards.

[3] = ambient laboratory conditions, 0 h
[4] = ambient laboratory conditions, 2 h
[5] = ambient laboratory conditions, 4 h
[6] = ambient laboratory conditions, 8 h
[7] = ambient laboratory conditions, 25 h
[8] = ambient laboratory conditions, 48 h

Time the sample solutions can be stored ([1]; 2-8° C.): up to 48 hrs
Time the sample solutions can be stored ([1]; ambient laboratory conditions): ≤ 52 h
SMILES: OC(C1CO1)C(O)C1CO1 (stereo not shown) [DAG, 1,2:5,6 dianhydrogalactitol]

Time the standard solutions can be stored ([2]; 2-8° C.): up to 48 hrs
Time the standard solutions can be stored ([2]; ambient laboratory condition): up to 52 hrs
Assay ([2]; 2-8° C., 0 h): 109.233%
Concentration ([2]; 2-8° C., 0 h): 89.5 µg/mL
Assay ([2]; 2-8° C., 2 h): 109.076%
Concentration ([2]; 2-8° C., 2 h): 89.4 µg/mL
Assay ([2]; 2-8° C., 4 h): 109.164%
Concentration ([2]; 2-8° C., 4 h): 89.5 µg/mL
Assay ([2]; 2-8° C., 8 h): 108.302%
Concentration ([2]; 2-8° C., 8 h): 88.8 µg/mL
Assay ([2]; 2-8° C., 25 h): 109.056%
Concentration ([2]; 2-8° C., 25 h): 89.4 µg/mL
Assay ([2]; 2-8° C., 48 h): 108.947%
Concentration ([2]; 2-8° C., 48 h): 89.3 µg/mL
Assay [2, 3]: 109.944%
Concentration [2, 3]: 89.8 µg/mL
Assay [2, 4]: 109.778%
Concentration [2, 4]: 89.7 µg/mL
Assay [2, 5]: 109.059%
Concentration [2, 5]: 89.1 µg/mL
Assay [2, 6]: 108.590%
Concentration [2, 6]: 88.7 µg/mL
Assay [2, 7]: 110.553%
Concentration [2, 7]: 90.3 µg/mL
Assay [2, 8]: 108.986%
Concentration [2, 8]: 89.1 µg/mL
SMILES: OC[C@@H](O)[C@H](O)[C@H](O)[C@@H](O)CO [Dulcitol, dulcitol]

From patent publication US10591445B2, “Methods for analysis and resolution of preparations of dianhydrogalactitol and derivatives or analogs thereof” (Del Mar Pharmaceuticals (BC) Ltd., priority 2015, dated 2020)
